Results published in ChEMBL document CHEMBL4017452, “Novel boronic acid derivatives of bis(indolyl) methane as anti-MRSA agents” (2017).
≈ marks a conversion by molar mass, not a printed value. Calls of active or inactive are those of the source. The rule behind the calls is not given here.

These compounds were tested on Staphylococcus aureus (assay: Antibacterial activity against methicillin-resistant Staphylococcus aureus clinical isolates after 18 hrs by CLSI method).
Type: functional

Compared with `COc1ccc2[nH]cc(C(c3ccc(Br)cc3)c3c[nH]c4ccc(OC)cc34)c2c1`, `COc1ccc2[nH]cc(C(c3ccc(C)cc3)c3c[nH]c4ccc(OC)cc34)c2c1` is higher in MIC: 62.5 µg/mL (≈ 135 µM) for the first, greater than 1000 µg/mL for the second.

First: Brc1ccc2[nH]cc(C(c3ccccc3)c3c[nH]c4ccc(Br)cc34)c2c1
Second: Brc1ccc(C(c2c[nH]c3ccc(Br)cc23)c2c[nH]c3ccc(Br)cc23)cc1
The MIC of the first is higher: greater than 1000 µg/mL for the first, 31.2 µg/mL (≈ 55.9 µM) for the second.

Going from `O=[N+]([O-])c1ccccc1C(c1c[nH]c2ccccc12)c1c[nH]c2ccccc12` to `OB(O)c1ccccc1C(c1c[nH]c2ccccc12)c1c[nH]c2ccccc12`, the MIC falls from 500 µg/mL (≈ 1360 µM) to 3.91 µg/mL (≈ 10.7 µM) (130-fold).

Going from `Cc1ccc(C(c2c[nH]c3ccc([N+](=O)[O-])cc23)c2c[nH]c3ccc([N+](=O)[O-])cc23)cc1` to `O=[N+]([O-])c1ccc2[nH]cc(C(c3ccc(Br)cc3)c3c[nH]c4ccc([N+](=O)[O-])cc34)c2c1`, the MIC falls from greater than 1000 µg/mL to 500 µg/mL (≈ 1020 µM).

Compared with `Brc1ccc(C(c2c[nH]c3ccccc23)c2c[nH]c3ccccc23)cc1`, `Cc1ccc(C(c2c[nH]c3ccccc23)c2c[nH]c3ccccc23)cc1` is higher in MIC: 500 µg/mL (≈ 1250 µM) for the first, greater than 1000 µg/mL for the second.

Going from `O=[N+]([O-])c1ccc(C(c2c[nH]c3ccc([N+](=O)[O-])cc23)c2c[nH]c3ccc([N+](=O)[O-])cc23)cc1` to `COc1ccc(C(c2c[nH]c3ccc([N+](=O)[O-])cc23)c2c[nH]c3ccc([N+](=O)[O-])cc23)cc1`, the MIC rises from 31.2 µg/mL (≈ 68.3 µM) to greater than 1000 µg/mL.

`O=Cc1ccc(C(c2c[nH]c3ccccc23)c2c[nH]c3ccccc23)cc1` and `O=[N+]([O-])c1ccc(C(c2c[nH]c3ccccc23)c2c[nH]c3ccccc23)cc1` are the same in MIC: 500 µg/mL (≈ 1430 µM) for the first, 500 µg/mL (≈ 1360 µM) for the second.

Compared with `COc1ccc2[nH]cc(C(c3ccc(/C=N/Nc4ccc([N+](=O)[O-])cc4[N+](=O)[O-])cc3)c3c[nH]c4ccc(OC)cc34)c2c1`, `O=[N+]([O-])c1ccc(N/N=C/c2ccc(C(c3c[nH]c4ccccc34)c3c[nH]c4ccccc34)cc2)c([N+](=O)[O-])c1` is 2-fold higher in MIC: 250 µg/mL (≈ 423 µM) for the first, 500 µg/mL (≈ 942 µM) for the second.

`COc1ccc(C(c2c[nH]c3ccc(OC)cc23)c2c[nH]c3ccc(OC)cc23)cc1` and `COc1ccc2[nH]cc(C(c3ccc(N(C)C)cc3)c3c[nH]c4ccc(OC)cc34)c2c1` cannot be ordered by MIC: greater than 1000 µg/mL for the first, greater than 1000 µg/mL for the second.

Going from `COc1ccc2[nH]cc(C(c3ccc([N+](=O)[O-])cc3)c3c[nH]c4ccc(OC)cc34)c2c1` to `COc1ccc2[nH]cc(C(c3ccccc3[N+](=O)[O-])c3c[nH]c4ccc(OC)cc34)c2c1`, the MIC falls from greater than 1000 µg/mL to 500 µg/mL (≈ 1170 µM).

First: c1ccc(C(c2c[nH]c3ccccc23)c2c[nH]c3ccccc23)cc1
Second: OB(O)c1cccc(C(c2c[nH]c3ccccc23)c2c[nH]c3ccccc23)c1
The MIC of the first is higher: greater than 1000 µg/mL for the first, 3.91 µg/mL (≈ 10.7 µM) for the second.

`O=[N+]([O-])c1ccc2[nH]cc(C(c3ccc(C(c4c[nH]c5ccc([N+](=O)[O-])cc45)c4c[nH]c5ccc([N+](=O)[O-])cc45)cc3)c3c[nH]c4ccc([N+](=O)[O-])cc34)c2c1` and `COc1ccc2[nH]cc(C(c3ccc(C(c4c[nH]c5ccc(OC)cc45)c4c[nH]c5ccc(OC)cc45)cc3)c3c[nH]c4ccc(OC)cc34)c2c1` are the same in MIC: 500 µg/mL (≈ 670 µM) for the first, 500 µg/mL (≈ 728 µM) for the second.

Compared with `OB(O)c1ccc(C(c2c[nH]c3ccccc23)c2c[nH]c3ccccc23)cc1`, `CN(C)c1ccc(C(c2c[nH]c3ccccc23)c2c[nH]c3ccccc23)cc1` is higher in MIC: 7.81 µg/mL (≈ 21.3 µM) for the first, greater than 1000 µg/mL for the second.

First: COc1ccc2[nH]cc(C(c3ccccc3)c3c[nH]c4ccc(OC)cc34)c2c1
Second: Cc1ccc(C(c2c[nH]c3ccc(Br)cc23)c2c[nH]c3ccc(Br)cc23)cc1
The MIC of the first is higher: greater than 1000 µg/mL for the first, 62.5 µg/mL (≈ 126 µM) for the second.

Going from `c1ccc2c(C(c3ccc(C(c4c[nH]c5ccccc45)c4c[nH]c5ccccc45)cc3)c3c[nH]c4ccccc34)c[nH]c2c1` to `O=[N+]([O-])c1cccc(C(c2c[nH]c3ccccc23)c2c[nH]c3ccccc23)c1`, the MIC falls from 1000 µg/mL (≈ 1760 µM) to 15.6 µg/mL (≈ 42.5 µM) (64-fold).

Work on `O=[N+]([O-])c1ccc(C(c2c[nH]c3ccc(Br)cc23)c2c[nH]c3ccc(Br)cc23)cc1` yielded an MIC of 15.6 µg/mL (≈ 29.7 µM).

The compounds below were run on Staphylococcus aureus (assay: Binding affinity to methicillin-resistant Staphylococcus aureus [(Ac)2-L-Lys-D-Ala-/-D-Ala] by isothermal titration calorimetric method).

For `OB(O)c1cccc(C(c2c[nH]c3ccccc23)c2c[nH]c3ccccc23)c1`, the K was 242 M⁻¹.

What follows are compounds tested on Staphylococcus aureus (assay: Binding affinity to methicillin-resistant Staphylococcus aureus [(Ac)2-L-Lys-D-Ala-/-D-Ala] assessed as change in enthalpy by isothermal titration calorimetric method).

With `OB(O)c1cccc(C(c2c[nH]c3ccccc23)c2c[nH]c3ccccc23)c1` the deltaH was -49.4 cal/mol.

These compounds were tested on Staphylococcus aureus (assay: Bactericidal activity against methicillin-resistant Staphylococcus aureus at 0.8 to 4 ug/ml).
Type: functional

For `OB(O)c1ccccc1C(c1c[nH]c2ccccc12)c1c[nH]c2ccccc12`, the Activity was “Active”.
With `OB(O)c1cccc(C(c2c[nH]c3ccccc23)c2c[nH]c3ccccc23)c1` the Activity was “Active”.

What follows are compounds tested on Staphylococcus aureus (assay: Bactericidal activity against methicillin-resistant Staphylococcus aureus at 1.6 to 8 ug/ml).
Type: functional

For `OB(O)c1ccc(C(c2c[nH]c3ccccc23)c2c[nH]c3ccccc23)cc1`, the Activity was “Active”.

These compounds were tested on Staphylococcus aureus (assay: Binding affinity to methicillin-resistant Staphylococcus aureus [(Ac)2-L-Lys-D-Ala-/-D-Ala] assessed as change in entropy by isothermal titration calorimetric method).

Compound `OB(O)c1cccc(C(c2c[nH]c3ccccc23)c2c[nH]c3ccccc23)c1` has a deltaS of -59.5 cal/mol/deg.
